The target of one series is OPRK1 (Homo sapiens, UniProt P41145). The series is described as follows: Safetyscan47 GPCR cAMP, Agonist. The conditions noted are these: for Emax: read-out: Max Response. In kind it is cell-based.
The next series addresses T1, CHRM2 (Homo sapiens, UniProt P08172).
T1 sequence (P08172 1-466): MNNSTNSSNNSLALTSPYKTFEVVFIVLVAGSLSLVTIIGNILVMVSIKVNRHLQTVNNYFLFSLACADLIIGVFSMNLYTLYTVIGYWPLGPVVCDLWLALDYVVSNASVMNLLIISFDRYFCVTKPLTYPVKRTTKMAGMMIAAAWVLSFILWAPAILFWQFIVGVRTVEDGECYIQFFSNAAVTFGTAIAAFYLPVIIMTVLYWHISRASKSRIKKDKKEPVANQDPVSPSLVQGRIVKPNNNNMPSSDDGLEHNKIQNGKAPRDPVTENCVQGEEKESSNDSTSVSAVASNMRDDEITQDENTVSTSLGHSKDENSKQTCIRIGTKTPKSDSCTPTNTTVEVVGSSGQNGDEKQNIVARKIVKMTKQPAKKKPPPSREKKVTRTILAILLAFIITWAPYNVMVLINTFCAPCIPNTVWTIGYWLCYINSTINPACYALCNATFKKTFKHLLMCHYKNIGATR
The series can be described thus: Safetyscan47 GPCR cAMP, Antagonist. In kind it is cell-based. The conditions noted are these: for Emax: read-out: Max Response.

The nature of series [1]: Plasma stability, mouse plasma. In kind it is in vitro ADME.
The target of series [2] is T2, ADRA2A (Homo sapiens, UniProt P08913).
T2 sequence (P08913 1-465): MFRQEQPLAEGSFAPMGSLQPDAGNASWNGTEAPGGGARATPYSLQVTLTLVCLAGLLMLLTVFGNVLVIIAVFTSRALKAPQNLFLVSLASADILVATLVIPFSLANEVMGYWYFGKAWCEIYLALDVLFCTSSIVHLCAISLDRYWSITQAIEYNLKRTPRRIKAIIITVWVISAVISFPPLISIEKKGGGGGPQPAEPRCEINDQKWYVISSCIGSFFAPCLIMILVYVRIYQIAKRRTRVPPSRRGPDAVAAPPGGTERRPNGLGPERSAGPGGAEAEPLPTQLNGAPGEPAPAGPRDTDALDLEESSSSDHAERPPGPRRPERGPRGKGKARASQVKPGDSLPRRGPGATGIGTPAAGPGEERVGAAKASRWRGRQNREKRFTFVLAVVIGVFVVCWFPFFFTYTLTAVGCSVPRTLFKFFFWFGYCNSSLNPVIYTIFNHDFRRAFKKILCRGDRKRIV
The series is described as follows: Safetyscan47 GPCR cAMP, Agonist. It counts as cell-based. The conditions noted are these: for Emax: read-out: Max Response.

Series [3] addresses T2, ADRA2A. The series is described as follows: Safetyscan47 GPCR cAMP, Antagonist. In kind it is cell-based. The following applies: for Emax: read-out: Max Response.
The target in another series is nAChR(a4/b2) (Homo sapiens, UniProt P17787+P43681). The series is described as follows: Safetyscan47 Ion Channel, Opener. It counts as cell-based. The following applies: for Emax: read-out: Max Response.
Another series concerns the target T3, integrin αIIbβ3 (Homo sapiens, UniProt P05106+P08514).
T3 sequence (P08514 32-993 limits assumed): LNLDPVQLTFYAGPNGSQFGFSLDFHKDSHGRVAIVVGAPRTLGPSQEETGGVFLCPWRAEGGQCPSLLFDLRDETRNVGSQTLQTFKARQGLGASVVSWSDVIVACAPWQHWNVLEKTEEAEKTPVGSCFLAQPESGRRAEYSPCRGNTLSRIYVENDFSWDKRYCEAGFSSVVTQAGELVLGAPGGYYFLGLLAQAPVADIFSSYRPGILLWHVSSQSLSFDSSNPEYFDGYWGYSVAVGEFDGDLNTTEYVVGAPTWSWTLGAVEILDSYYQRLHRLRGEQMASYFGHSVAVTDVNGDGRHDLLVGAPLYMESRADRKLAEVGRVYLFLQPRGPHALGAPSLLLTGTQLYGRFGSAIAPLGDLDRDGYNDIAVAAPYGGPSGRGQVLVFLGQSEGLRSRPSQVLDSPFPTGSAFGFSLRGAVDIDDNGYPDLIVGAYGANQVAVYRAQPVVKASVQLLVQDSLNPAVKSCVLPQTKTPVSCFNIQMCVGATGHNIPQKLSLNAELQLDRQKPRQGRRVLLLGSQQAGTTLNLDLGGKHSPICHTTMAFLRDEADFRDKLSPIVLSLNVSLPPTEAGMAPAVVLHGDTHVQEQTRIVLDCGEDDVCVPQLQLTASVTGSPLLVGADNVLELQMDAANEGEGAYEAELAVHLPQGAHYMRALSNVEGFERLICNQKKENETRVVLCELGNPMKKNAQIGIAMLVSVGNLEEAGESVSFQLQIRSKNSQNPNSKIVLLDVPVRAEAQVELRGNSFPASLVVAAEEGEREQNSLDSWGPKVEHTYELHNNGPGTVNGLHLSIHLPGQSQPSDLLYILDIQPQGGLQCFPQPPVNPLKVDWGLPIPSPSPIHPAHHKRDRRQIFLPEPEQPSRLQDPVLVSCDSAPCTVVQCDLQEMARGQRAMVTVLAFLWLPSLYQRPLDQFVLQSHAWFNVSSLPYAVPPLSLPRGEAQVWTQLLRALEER
T3 sequence (P05106 27-718 limits assumed): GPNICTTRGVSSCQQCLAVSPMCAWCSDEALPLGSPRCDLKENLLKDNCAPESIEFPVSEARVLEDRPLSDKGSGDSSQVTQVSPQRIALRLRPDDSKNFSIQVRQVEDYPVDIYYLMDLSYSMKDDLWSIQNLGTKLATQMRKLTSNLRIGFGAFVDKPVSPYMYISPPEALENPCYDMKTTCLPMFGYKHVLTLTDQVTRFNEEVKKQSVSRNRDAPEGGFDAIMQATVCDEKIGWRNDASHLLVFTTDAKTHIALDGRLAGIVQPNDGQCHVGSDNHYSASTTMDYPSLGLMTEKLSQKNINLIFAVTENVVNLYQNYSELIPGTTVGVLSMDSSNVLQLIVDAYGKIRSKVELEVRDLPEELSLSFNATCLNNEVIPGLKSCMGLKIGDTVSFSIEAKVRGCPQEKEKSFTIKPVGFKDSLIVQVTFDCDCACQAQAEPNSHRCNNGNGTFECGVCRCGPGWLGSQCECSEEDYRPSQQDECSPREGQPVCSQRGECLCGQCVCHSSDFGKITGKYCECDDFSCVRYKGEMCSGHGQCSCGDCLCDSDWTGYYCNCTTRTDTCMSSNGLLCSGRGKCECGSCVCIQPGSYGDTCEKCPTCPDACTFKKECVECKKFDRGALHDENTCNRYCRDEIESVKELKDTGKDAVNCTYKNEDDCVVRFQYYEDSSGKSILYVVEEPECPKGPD
The series can be described thus: ELISA competition assay, integrin αIIbβ3. In kind it is binding.

Structures are written as SMILES. Bridge positions count the residues as written; N and C are the ends. Side chains are listed from the residue outwards. Peptide text beside a SMILES is read from it. * marks the point of attachment. Butanoyl(4-(4-I-phenyl)) = O=C(CCCc1ccc(I)cc1)*; PEG2 = NCCOCCOCCC(=O)O

Sequence of nAChR(a4/b2) (P43681 29-627 limits assumed): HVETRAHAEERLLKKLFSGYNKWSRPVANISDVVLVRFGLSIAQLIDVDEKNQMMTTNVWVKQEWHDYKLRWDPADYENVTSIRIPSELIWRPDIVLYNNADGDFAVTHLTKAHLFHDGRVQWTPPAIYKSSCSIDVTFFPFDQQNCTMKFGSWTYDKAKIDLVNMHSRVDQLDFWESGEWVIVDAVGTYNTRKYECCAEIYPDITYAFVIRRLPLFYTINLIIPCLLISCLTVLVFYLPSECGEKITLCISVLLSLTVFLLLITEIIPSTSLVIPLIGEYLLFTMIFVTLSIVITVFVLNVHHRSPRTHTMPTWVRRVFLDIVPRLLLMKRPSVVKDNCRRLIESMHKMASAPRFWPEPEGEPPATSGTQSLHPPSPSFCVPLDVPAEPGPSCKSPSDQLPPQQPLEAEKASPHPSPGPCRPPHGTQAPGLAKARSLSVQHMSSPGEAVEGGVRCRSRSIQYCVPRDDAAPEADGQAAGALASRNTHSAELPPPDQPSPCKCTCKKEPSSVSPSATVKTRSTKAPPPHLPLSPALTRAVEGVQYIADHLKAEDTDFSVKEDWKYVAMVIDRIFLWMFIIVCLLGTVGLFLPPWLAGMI
Sequence of nAChR(a4/b2) (P17787 26-502): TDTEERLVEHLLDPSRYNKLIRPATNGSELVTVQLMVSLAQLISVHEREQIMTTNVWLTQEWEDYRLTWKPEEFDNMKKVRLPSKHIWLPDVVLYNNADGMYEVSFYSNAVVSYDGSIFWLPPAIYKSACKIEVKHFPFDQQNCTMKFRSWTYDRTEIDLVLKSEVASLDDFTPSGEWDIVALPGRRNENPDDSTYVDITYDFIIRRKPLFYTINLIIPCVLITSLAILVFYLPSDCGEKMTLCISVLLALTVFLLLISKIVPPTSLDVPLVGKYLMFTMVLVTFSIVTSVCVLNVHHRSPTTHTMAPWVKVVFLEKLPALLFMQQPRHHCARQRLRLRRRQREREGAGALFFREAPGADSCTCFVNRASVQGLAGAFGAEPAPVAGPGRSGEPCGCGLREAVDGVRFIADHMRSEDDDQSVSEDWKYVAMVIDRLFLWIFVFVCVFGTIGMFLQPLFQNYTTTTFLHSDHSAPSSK
Sequence of OPRK1 (P41145 whole entry): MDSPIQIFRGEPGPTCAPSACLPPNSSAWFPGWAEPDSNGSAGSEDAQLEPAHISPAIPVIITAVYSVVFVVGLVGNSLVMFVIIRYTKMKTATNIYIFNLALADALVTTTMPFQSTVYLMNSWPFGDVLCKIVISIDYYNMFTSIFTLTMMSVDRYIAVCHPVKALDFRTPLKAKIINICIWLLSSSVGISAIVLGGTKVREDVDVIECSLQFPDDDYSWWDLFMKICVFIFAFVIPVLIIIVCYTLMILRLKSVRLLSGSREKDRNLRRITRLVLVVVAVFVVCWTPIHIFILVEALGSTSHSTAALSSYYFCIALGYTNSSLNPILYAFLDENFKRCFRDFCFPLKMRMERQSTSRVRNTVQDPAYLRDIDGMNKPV

Consider `CC[C@H](C)[C@H](NC(=O)[C@H](CC(C)C)NC(=O)[C@H](CC(=O)O)NC(=O)CNC(=O)[C@H](CCCNC(=N)N)NC(=O)[C@@H](NC(=O)[C@H](Cc1ccccc1)NC(=O)[C@H](Cc1ccc(O)cc1)NC(=O)[C@@H]1CCC(=O)NCC(=O)NCC(=O)N[C@@H](CCCNC(=N)N)C(=O)NCC(=O)N[C@@H](Cc2c[nH]cn2)C(=O)N[C@@H](C(C)C)C(=O)N2CCC[C@H]2C(=O)N1)C(C)C)C(=O)N[C@@H](CO)C(=O)N[C@@H](Cc1ccccc1)C(=O)N[C@@H](Cc1ccc(O)cc1)C(=O)N[C@@H](CCCCNC(=O)CCOCCOCCNC(=O)CCCc1ccc(I)cc1)C(=O)O` [lassotide 47] (GGRGHVPEYFVRGDLISFYK([PEG2-Butanoyl(4-(4-I-phenyl))])-OH; lactam N-8), for which the half-maximal effective concentration (EC50) on OPRK1, on ADRA2A [2] and at nAChR(a4/b2) was greater than 45 µM each time. The Emax on OPRK1 was 23.4%; on CHRM2, 0%; on ADRA2A [2], 30.2%; on ADRA2A [3] it was 0%; at nAChR(a4/b2), 0%. Moreover, the values for the IC50 against CHRM2, on ADRA2A [3] and at integrin αIIbβ3 were greater than 45 µM, greater than 45 µM and 1490 nM, respectively. This compound showed a share remaining at 0.5 h, 2 μM in series [1] of 86.3%. In series [1], this compound displayed a fraction remaining at 4 h, 2 μM of 86.9%.
On to `CC[C@H](C)[C@H](NC(=O)[C@H](CC(C)C)NC(=O)[C@H](CC(=O)O)NC(=O)CNC(=O)[C@H](CCCNC(=N)N)NC(=O)[C@@H](NC(=O)[C@H](Cc1ccccc1)NC(=O)[C@H](Cc1ccc(O)cc1)NC(=O)[C@@H]1CCC(=O)NCC(=O)NCC(=O)N[C@@H](CCCNC(=N)N)C(=O)NCC(=O)N[C@@H](Cc2c[nH]cn2)C(=O)N[C@@H](C(C)C)C(=O)N2CCC[C@H]2C(=O)N1)C(C)C)C(=O)N[C@@H](CO)C(=O)N[C@@H](Cc1ccccc1)C(=O)N[C@@H](Cc1ccc(O)cc1)C(=O)N[C@@H](CCCCN)C(=O)O` [lassotide 36] (GGRGHVPEYFVRGDLISFYK-OH; lactam N-8), for which the concentration giving a half-maximal response (EC50) on OPRK1, at ADRA2A [2] and on nAChR(a4/b2) was greater than 45 µM throughout. Moreover, the Emax stood at 2.19% on OPRK1; 0% on CHRM2; 0.3% on ADRA2A [2]; 0% at ADRA2A [3]; 11% on nAChR(a4/b2). Moreover, the IC50 against CHRM2 is greater than 45 µM; on ADRA2A [3] it was greater than 45 µM; on integrin αIIbβ3, 332 nM. In series [1], the half-life at 2 μM is 306 min. For the same compound, the fraction remaining at 0.5 h, 2 μM in series [1] stood at 88.7%. Further, in series [1], the fraction remaining at 4 h, 2 μM came to 56.1%.

The record behind these values is paper doi:10.1101/2025.01.28.635346v1 (bioRxiv, 2025).
